The source of these data is US7122657B2, “UDP-glucose aglycon-glucosytransferase” (priority 1999, dated 2006).

Assay [1] deals with glucosyltransferase activity of desalted crude etiolated Sorghum seedling extract. The assay is described as follows: Substrate specificity of desalted crude etiolated Sorghum seedling extract (TLC, 14C-UDP-glucose). In kind it is biochemical, Sorghum bicolor. Details: key: ▪: indicate that a radiolabelled product was visualised after incubation with the respective aglycone substrate; □: indicate that no radiolablled products could be detected under the experimental conditions employed. The note with it: aglycone substrate. As for the experimental part: (§1) Generally a 20 μl reaction mixture including • 100 mM Tris HCl (pH 7.9), • 1–5 μM ^14C-UDP-glucose (11.0 GBq mmol^−1, Amersham LIFE SCIENCE), • 0–300 μM UDP-glucose, • 0–20 mM p-hydroxymandelonitrile (dissolved in water, freshly prepared), • 25 mM γ-gluconolactone, • 0–1 mg BSA and • 0.5–10 μl of protein preparation, is incubated at 30° C. between 2 minutes and 2 hours. Thereafter the reaction is terminated by the addition of 1/10 of the reaction volume of 10% acetic acid. The same assay conditions are used to determine the glucosylation of mandelonitrile, benzoic acid, benzylalcohol, geraniol and a number of other aglycons.
(§2) For TLC analysis the reaction mixture is applied to Silica Gel 60 F254 plates (Merck), dried and eluted in a solvent containing ethyl acetate:acetone:dichloromethane:methanol:[…] (40:30:12:10:8, v/v). Plates are dried for one hour at room temperature and exposed to storage phosphorlmaging plates (Molecular Dynamics) prior to scanning on a Storm 860 Phosphorimager (Molecular Dynamics).
(§3) Substrate Specificity of Recombinant sbHMNGT Compared to Desalted Crude Etiolated Sorghum Seedling Extract
(§4) Glucosyltransterase activity was determined by TLC using ^14C-UDP-glucose. Filled boxes in Table 1 below (▪) indicate that a radiolabelled product was visualised after incubation with the respective aglycone substrate. Empty boxes (□) indicate that no radiolablled products could be detected under the experimental conditions employed. Figures in brackets indicate the relative Vmax for each aglycon with calculated standard deviations.

Assay [2] addresses T1, recombinant sbHMNGT (UDP-glucose:p-hydroxymandelonitrile-glucosyltransferase) (Sorghum bicolor, UniProt Q9SBL1).
T1 construct: are used to amplify a 1500 bp full-length sbHMNGT insert by PCR; made in house; host or cells: E. coli JM109, vector pSP19g10L
The assay is described as follows: Substrate specificity of recombinant sbHMNGT (TLC, 14C-UDP-glucose). It is filed as biochemical. Details: key to ACTIVITY Recombinant sbHMNGT (radiolabelled glucoside product): ▪: indicate that a radiolabelled product was visualised after incubation with the respective aglycone substrate; □: indicate that no radiolablled products could be detected under the experimental conditions employed. The note with it: for ACTIVITY Recombinant sbHMNGT (radiolabelled glucoside product): 1.25 mM aglycone, 100 ng recombinant sbHMNGT, 20 min at 30° C., TLC. As for the experimental part:
as §1
To determine the substrate specificity of recombinant sbHMNGT incubation lasts for 20 min at 30° C. and the general protocol above is adapted to include • 1.25 mM aglycone (dissolved in ethanol except for flavonoids which are dissolved in ethylene glycol monoether), • 1.25 μM ^14C-UDP-glucose, • 12.5 μM UDP-glucose, • 100 ng recombinant sbHMNGT, and • 4 μg BSA.
as §2, §3, §4

Assay [3] addresses T2, sbHMNGT (Sorghum bicolor, UniProt Q9SBL1). Description: Quantitative determination of the activity of recombinant sbHMNGT (Vmax). In kind it is biochemical. Set-up: are used to amplify a 1500 bp full-length sbHMNGT insert by PCR; made in house; host or cells: E. coli JM109, vector pSP19g10L. The settings on record: for relative Vmax with calculated standard deviations: relative to p-hydroxymandelonitrile, 1, 5 or 10 mM aglycone, 4 minutes at 30° C. The protocol:
as §1
Quantitative determination of the activity of recombinant sbHMNGT is carried out using 4 minutes incubation at 30° C. Analyses are carried out as for the determination of substrate specificity except that the reaction mixtures are composed as folows: • 1, 5 or 10 mM aglycone, • 5 μM ^14C-UDP-glucose, • 0.2 mM UDP-glucose, • 200 ng recombinant sbHMNGT, and • 24 μg BSA.
as §4

Assay [4] addresses T2, sbHMNGT. Description: sbHMNGT activity assay during purification (LSC). In kind it is biochemical. Details: from tissue; host or cells: etiolated Sorghum bicolor seedling shoots; ammonium sulphate, Q-sepharose and Reactive Yellow 3 fractions. The settings on record: native sbHMNGT. As for the experimental part: as §1
For analysis by liquid scintillation counting (LSC) reaction mixtures are extracted with 400 μl of ethyl acetate to separate glucosides from unincorporated ^14C-UDP-glucose. 2 ml of Ecoscint A (National Diagnostics, New Jersey, USA) are added to 250 μl of each ethyl acetate extract and analyzed using a Win Spectral 1414 (Wallac) liquid scintillation counter. Mandelonitrile is used as substrate to assay fractions generated by liquid chromatography.
Except where indicated all steps are carried out at 4° C. […] Furthermore, the absence of a hydroxyl group at the para-position of the benzene ring rules out the possibility of p-glucosyloxymandelonitrile synthesis, which would be indistinguishable from dhurrin using the LSC assay.

T2 sequence (Q9SBL1 whole entry): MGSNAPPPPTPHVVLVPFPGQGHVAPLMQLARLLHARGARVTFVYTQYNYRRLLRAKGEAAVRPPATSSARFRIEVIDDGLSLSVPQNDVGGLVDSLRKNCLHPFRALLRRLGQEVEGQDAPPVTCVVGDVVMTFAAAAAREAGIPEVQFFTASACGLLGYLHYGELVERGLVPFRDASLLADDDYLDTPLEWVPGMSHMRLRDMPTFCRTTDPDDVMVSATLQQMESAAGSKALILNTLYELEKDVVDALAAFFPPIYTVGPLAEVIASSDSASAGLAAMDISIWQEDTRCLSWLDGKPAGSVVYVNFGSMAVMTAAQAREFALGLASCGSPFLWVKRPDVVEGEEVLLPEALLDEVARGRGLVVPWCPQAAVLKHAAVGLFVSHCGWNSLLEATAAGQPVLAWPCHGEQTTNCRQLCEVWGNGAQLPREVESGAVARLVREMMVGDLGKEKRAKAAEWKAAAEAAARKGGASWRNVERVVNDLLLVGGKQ
T1 sequence (Q9SBL1 whole entry): as above

On to `O=C(O)c1cc(O)ccc1O` [gentisic acid], for which, in assay [1], the “ACTIVITY Crude Sorghum extract (radiolabelled glucoside product)” value (“ACTIVITY Crude Sorghum extract” below) is reported as “□”. For the same molecule, in assay [2], the “ACTIVITY Recombinant sbHMNGT (radiolabelled glucoside product)” value (from here on “ACTIVITY Recombinant sbHMNGT”) was “□”.

For `CC(C)=CCC/C(C)=C/CO` [geraniol], the “ACTIVITY Crude Sorghum extract” value in assay [1] was “▪”. In assay [2], the “ability of sbHMNGT to glucosylate the aglycon” value (“ability of sbHMNGT” for short) was “glucosylate” and the “ACTIVITY Recombinant sbHMNGT” value was “▪”. On sbHMNGT [3], the “rate of glucosylation compared with the cyanohydrins” value is “lower than those observed for the cyanohydrins”. Moreover, the “relative Vmax with calculated standard deviations” value on sbHMNGT [3] (recombinant sbHMNGT) was “(11.0 ± 0.5%)”.

With `CC(C)=CCC/C(C)=C\CO` [nerol], the “ACTIVITY Crude Sorghum extract” value in assay [1] is “▪”. Besides, in assay [2], the “ability of sbHMNGT” value is recorded as “glucosylate” and the “ACTIVITY Recombinant sbHMNGT” value was “▪”.

`O=C1C[C@@H](c2ccc(O)cc2)Oc2cc(O)cc(O)c21` [naringenin]: the “ACTIVITY Crude Sorghum extract” value in assay [1] was “▪”. The “ACTIVITY Recombinant sbHMNGT” value in assay [2] is listed as “□”.

Turning to `CCCCCCO` [1-hexanol], the “ACTIVITY Crude Sorghum extract” value in assay [1] is “▪”. For the same molecule, in assay [2], the “ACTIVITY Recombinant sbHMNGT” value is “▪”.

As to `CC(C)(O)C#N` [acetone cyanohydrin], in assay [1], the “ACTIVITY Crude Sorghum extract” value is reported as “□”. Besides, the “ACTIVITY Recombinant sbHMNGT” value in assay [2] is on record as “□”.

As to `CCC=C(C)CCO` [3-methyl-3-hexen-1-ol], in assay [1], the “ACTIVITY Crude Sorghum extract” value is on record as “▪”. The “ACTIVITY Recombinant sbHMNGT” value in assay [2] is recorded as “▪”.

Turning to `O=c1c(O)c(-c2ccc(O)c(O)c2)oc2cc(O)cc(O)c12` [quercetin], the “ACTIVITY Crude Sorghum extract” value in assay [1] is “▪”. Besides, the “ACTIVITY Recombinant sbHMNGT” value in assay [2] was “□”.

On to `CC(C)=CCCC(C)CCO` (centres unmarked) [p-citronellol], for which the “ACTIVITY Crude Sorghum extract” value in assay [1] is listed as “▪”. Moreover, in assay [2], the “ability of sbHMNGT” value is listed as “glucosylate” and the “ACTIVITY Recombinant sbHMNGT” value is listed as “▪”.

For `O=C(O)c1ccccc1O` [salicylic acid], in assay [1], the “ACTIVITY Crude Sorghum extract” value is given as “▪”. Further, the “ACTIVITY Recombinant sbHMNGT” value in assay [2] was “□”.

Consider `COc1cc(C=O)ccc1O` [vanillin], for which, in assay [1], the “ACTIVITY Crude Sorghum extract” value was “▪”. In assay [2], the “ability of sbHMNGT” value is recorded as “glucosylate” and the “ACTIVITY Recombinant sbHMNGT” value is listed as “▪”.

For `COc1cc(C(=O)O)ccc1O` [vanillic acid], the “ACTIVITY Crude Sorghum extract” value in assay [1] is on record as “▪”. Besides, in assay [2], the “ability of sbHMNGT” value is listed as “glucosylate” and the “ACTIVITY Recombinant sbHMNGT” value is listed as “▪”.

As to `O=C(O)/C=C/c1ccc(O)c(O)c1` [caffeic acid], in assay [1], the “ACTIVITY Crude Sorghum extract” value is “▪”. In addition, in assay [2], the “ACTIVITY Recombinant sbHMNGT” value is reported as “□”.

Take `Oc1ccc(O)cc1` [hydroquinone]: the “ACTIVITY Crude Sorghum extract” value in assay [1] is reported as “▪”. Further, in assay [2], the “ACTIVITY Recombinant sbHMNGT” value is given as “□”.

Regarding `OCc1ccccc1` [benzyl alcohol], the “ACTIVITY Crude Sorghum extract” value in assay [1] is “▪”. In addition, in assay [2], the “ability of sbHMNGT” value is reported as “glucosylate” and the “ACTIVITY Recombinant sbHMNGT” value is given as “▪”. Further, the “rate of glucosylation compared with the cyanohydrins” value on sbHMNGT [3] is “lower than those observed for the cyanohydrins”. Besides, the “relative Vmax with calculated standard deviations” value at sbHMNGT [3] (recombinant sbHMNGT) is recorded as “(13.1 ± 2.1%)”.

For `N#CC(O)c1ccc(O)cc1` (centres unmarked) [p-hydroxymandelonitrile], in assay [1], the “ACTIVITY Crude Sorghum extract” value is recorded as “▪”. The “ACTIVITY Recombinant sbHMNGT” value in assay [2] is recorded as “▪”. In addition, at sbHMNGT [3] (recombinant sbHMNGT), the Vmax is given as 1500 mol of product/mol of sbHMNGT/sec and the “relative Vmax with calculated standard deviations” value is reported as “(100 ± 7.2%)”.

Regarding `O=C(O)c1ccccc1` [benzoic acid], the “ACTIVITY Crude Sorghum extract” value in assay [1] is recorded as “▪”. Besides, in assay [2], the “ability of sbHMNGT” value is on record as “glucosylate” and the “ACTIVITY Recombinant sbHMNGT” value is on record as “▪”. The “rate of glucosylation compared with the cyanohydrins” value on sbHMNGT [3] was “lower than those observed for the cyanohydrins”. The “relative Vmax with calculated standard deviations” value at sbHMNGT [3] (recombinant sbHMNGT) is on record as “(4.2 ± 0.8%)”.

For `CCCC(C)=CCO` [3-methyl-2-hexen-1-ol], the “ACTIVITY Crude Sorghum extract” value in assay [1] is listed as “▪”. In assay [2], the “ACTIVITY Recombinant sbHMNGT” value is given as “▪”.

On to `O=C(O)C=Cc1ccccc1O` [2-hydroxy cinnamic acid], for which the “ACTIVITY Crude Sorghum extract” value in assay [1] is “▪”. Further, the “ACTIVITY Recombinant sbHMNGT” value in assay [2] is given as “□”.

Consider `COc1ccc(-c2coc3cc(O)cc(O)c3c2=O)cc1` [biochanin A], for which the “ACTIVITY Crude Sorghum extract” value in assay [1] is “▪”. The “ACTIVITY Recombinant sbHMNGT” value in assay [2] is “□”.

Consider `O=C(O)C(O)c1ccc(O)cc1` (centres unmarked) [p-hydroxymandelic acid], for which the “ACTIVITY Crude Sorghum extract” value in assay [1] was “▪”. For the same molecule, the “ACTIVITY Recombinant sbHMNGT” value in assay [2] is “□”.

For the molecule `O=C(O)c1ccc(O)cc1` [p-hydroxybenzoic acid], the “ACTIVITY Crude Sorghum extract” value in assay [1] was “▪”. Also, the “ACTIVITY Recombinant sbHMNGT” value in assay [2] is recorded as “□”.

Consider `CCC/C=C/CO` [trans-2-hexen-1-ol], for which the “ACTIVITY Crude Sorghum extract” value in assay [1] is “▪”. Moreover, in assay [2], the “ACTIVITY Recombinant sbHMNGT” value is given as “▪”.

For `N#CC(O)c1ccccc1` (centres unmarked) [mandelonitrile], the “ACTIVITY Crude Sorghum extract” value in assay [1] is reported as “▪”. In assay [2], the “ACTIVITY Recombinant sbHMNGT” value is reported as “▪”. On sbHMNGT [3] (recombinant sbHMNGT), the “relative Vmax with calculated standard deviations” value is given as “(77.8 ± 8.6%)”. On sbHMNGT [4], the “substrate quality compared with p-hydroxymandelonitrile” value is “equally good substrate”.

`O=Cc1ccc(O)cc1` [p-hydroxybenzaldehyde]: in assay [1], the “ACTIVITY Crude Sorghum extract” value was “▪”. Moreover, the “ACTIVITY Recombinant sbHMNGT” value in assay [2] is on record as “□”.

For the molecule `C[C@H]1CC[C@]2(NC1)O[C@H]1C[C@H]3[C@@H]4CC[C@H]5C[C@@H](O)CC[C@]5(C)[C@H]4CC[C@]3(C)[C@H]1[C@@H]2C` [tomatidine], the “ACTIVITY Crude Sorghum extract” value in assay [1] is “▪”. The “ACTIVITY Recombinant sbHMNGT” value in assay [2] is on record as “□”.

As to `OCc1ccc(O)cc1` [p-hydroxybenzyl alcohol], the “ACTIVITY Crude Sorghum extract” value in assay [1] is “▪”. For the same molecule, the “ACTIVITY Recombinant sbHMNGT” value in assay [2] is “▪”.

Regarding `CC/C=C\CCO` [cis-3-hexen-1-ol], the “ACTIVITY Crude Sorghum extract” value in assay [1] is reported as “▪”. Further, the “ACTIVITY Recombinant sbHMNGT” value in assay [2] is recorded as “▪”.

As to `O=c1cc(-c2ccc(O)cc2)oc2cc(O)cc(O)c12` [apigenin], the “ACTIVITY Crude Sorghum extract” value in assay [1] is listed as “▪”. Also, in assay [2], the “ACTIVITY Recombinant sbHMNGT” value is recorded as “□”.

For `COc1cccc(CO)c1O` [2-hydroxy-3-methoxybenzlalcohol], the “ACTIVITY Crude Sorghum extract” value in assay [1] is “▪”. Also, in assay [2], the “ability of sbHMNGT” value is listed as “glucosylate” and the “ACTIVITY Recombinant sbHMNGT” value is “▪”.

As for `Oc1ccc(C=Cc2cc(O)cc(O)c2)cc1` [resveratrol], in assay [1], the “ACTIVITY Crude Sorghum extract” value is reported as “▪”. Besides, the “ACTIVITY Recombinant sbHMNGT” value in assay [2] is “□”.
